Like-named read-outs stand apart in the source and are kept apart here.
Columns and labels:
rat = conditions: oral administration in rat; cited from earlier work
[1] = Hygroscopic properties: exposure to relative humidity, water content by Karl Fischer method; format: physicochemical; conditions: for Found-Calculated (Difference, %) / Range of Difference (%) / Water content, relative humidity 25% / Water content, relative humidity 50% / Water content, relative humidity 75% / Water content, relative humidity 100%: 7 days; for Found-Calculated (Difference, %) / Range of Difference (%): relative humidity 25-100%; for Found-Calculated (Difference, %) (number in parenthesis) / Range of Difference (%) (number in parenthesis): after 3 days at the corresponding relative humidity; for Water content at onset: before exposure, 7-day series; for Water content at onset / Water content, relative humidity 25% / Water content, relative humidity 50% / Water content, relative humidity 75% / Water content, relative humidity 100%: Karl Fischer; for Water content at onset (number in parenthesis): parenthesis = 3-day series; for Water content, relative humidity 50% (number in parenthesis) / Water content, relative humidity 75% (number in parenthesis) / Water content, relative humidity 100% (number in parenthesis) / Water content, relative humidity 25% (33%) (number in parenthesis): after 3 days; for Water content, relative humidity 25% (33%) (number in parenthesis): relative humidity (33%); for Calculated water content (%): theoretical, for (1) based on m = 1.5 and n = 0.30 in formula (I)
Description: Also, the hygroscopic properties of each of the compound obtained in Example 1 (1), azithromycin dihydrate (2), monohydrate (3), and anhydride (4) were determined by exposing each sample to a relative humidity of each 25%, 50%, […] thereof by the Karl Fischer method.

[2] = prior art forms, background section, cited from earlier work

SMILES: CC(O)CO (centres unmarked) [1,2-propyleneglycol]
- LD50 (rat): 25 mL/kg

SMILES: CC[C@H]1OC(=O)[C@H](C)[C@@H](O[C@H]2C[C@@](C)(OC)[C@@H](O)[C@H](C)O2)[C@H](C)[C@@H](O[C@@H]2O[C@H](C)C[C@H](N(C)C)[C@H]2O)[C@](C)(O)C[C@@H](C)CN(C)[C@H](C)[C@@H](O)[C@]1(C)O [(2), azithromycin dihydrate]
- Found-Calculated (Difference, %) ([1]; dihydrate): −0.4~+1.51%
- Range of Difference (%) ([1]; dihydrate): 1.91%
- Found-Calculated (Difference, %) (number in parenthesis) ([1]; dihydrate): (−2.1~+0.6) %
- Range of Difference (%) (number in parenthesis) ([1]; dihydrate): 2.7%
- Water content at onset ([1]; dihydrate): 4.58%
- Water content at onset (number in parenthesis) ([1]; dihydrate): 4.1%
- Water content, relative humidity 25% ([1]; dihydrate): 4.20%
- Water content, relative humidity 50% ([1]; dihydrate): 4.25%
- Water content, relative humidity 50% (number in parenthesis) ([1]; dihydrate): 4.6%
- Water content, relative humidity 75% ([1]; dihydrate): 5.10%
- Water content, relative humidity 75% (number in parenthesis) ([1]; dihydrate): 4.6%
- Water content, relative humidity 100% ([1]; dihydrate): 6.11%
- Water content, relative humidity 100% (number in parenthesis) ([1]; dihydrate): 5.2%
- Water content, relative humidity 25% (33%) (number in parenthesis) ([1]; dihydrate): 2.5%
- Calculated water content (%) ([1]; dihydrate): 4.60%
- Hygroscopic property (in words) ([2]; dihydrate): less hydroscopic than the monohydrate

SMILES: CC[C@H]1OC(=O)[C@H](C)[C@@H](O[C@H]2C[C@@](C)(OC)[C@@H](O)[C@H](C)O2)[C@H](C)[C@@H](O[C@@H]2O[C@H](C)C[C@H](N(C)C)[C@H]2O)[C@](C)(O)C[C@@H](C)CN(C)[C@H](C)[C@@H](O)[C@]1(C)O [(3), azithromycin monohydrate]
- Found-Calculated (Difference, %) ([1]; monohydrate): +1~+3.94%
- Range of Difference (%) ([1]; monohydrate): 3.94%
- Found-Calculated (Difference, %) (number in parenthesis) ([1]; monohydrate): (−0.05~+4.84) %
- Range of Difference (%) (number in parenthesis) ([1]; monohydrate): 4.9%
- Water content at onset ([1]; monohydrate): 2.30%
- Water content at onset (number in parenthesis) ([1]; monohydrate): 3.2%
- Water content, relative humidity 25% ([1]; monohydrate): 3.35%
- Water content, relative humidity 50% ([1]; monohydrate): 5.13%
- Water content, relative humidity 50% (number in parenthesis) ([1]; monohydrate): 5.6%
- Water content, relative humidity 75% ([1]; monohydrate): 5.41%
- Water content, relative humidity 75% (number in parenthesis) ([1]; monohydrate): 6.6%
- Water content, relative humidity 100% ([1]; monohydrate): 6.29%
- Water content, relative humidity 100% (number in parenthesis) ([1]; monohydrate): 7.2%
- Water content, relative humidity 25% (33%) (number in parenthesis) ([1]; monohydrate): 2.3%
- Calculated water content (%) ([1]; monohydrate): 2.35%

SMILES: CC[C@H]1OC(=O)[C@H](C)[C@@H](O[C@H]2C[C@@](C)(OC)[C@@H](O)[C@H](C)O2)[C@H](C)[C@@H](O[C@@H]2O[C@H](C)C[C@H](N(C)C)[C@H]2O)C(C)(O)C[C@H](C)CN(C)[C@H](C)[C@@H](O)[C@]1(C)O (some centres unmarked) [(4), 9-deoxo-9a-aza-9a-methyl-9a-homoerythromycin A]
- Found-Calculated (Difference, %) [1]: +1.11~+7.00%
- Range of Difference (%) [1]: 7.00%
- Water content at onset [1]: 0.22%
- Water content, relative humidity 25% [1]: 1.11%
- Water content, relative humidity 50% [1]: 2.85%
- Water content, relative humidity 75% [1]: 4.33%
- Water content, relative humidity 100% [1]: 7.00%
- Calculated water content (%) [1]: 0.00%
- Hygroscopic property (in words) [2]: highly hygroscopic

Source: patent US7205394B2, “Clathrate of azithromycin hydrate with 1,2-propyleneglycol, method for the manufacture thereof and pharmaceutical composition comprising same” (Hanmi Pharm. Co., Ltd., priority 2001, dated 2007)
